Measurements published in patent publication US20240025922A1, “TETRAHYDROPYRIDO[3,4-d]PYRIMIDINES AS HPK1 INHIBITORS” (Merck Patent GmbH, priority 2022, published 2024).

Key:
[1] = target: full-length human HPK1 (MAP4K1) (Homo sapiens (Human), UniProt Q92918); test: HPK1 Kinase Assay (Biochemical Assay), ADP-Glo; conditions: GST-HPK1 3.2 nM, 10 μM ATP, MBP substrate, read-out: HPK1 enzymatic IC50
Description: HPK1 Kinase Assay (Biochemical Assay).
A recombinant fusion protein consisting of full-length human HPK1 (MAP4K1) with an N-terminal Glutatione S-transferase (GST) tag was produced in insect cells Sf21 using the baculovirus expression system. GST-HPK1 protein was purified from cell lysates by glutathione Sepharose affinity chromatography. The assay is run in three continuous steps: 1) the HPK1 enzymatic kinase reaction, 2) an ATP depletion, and 3) the ADP detection, the steps 2 and 3 are performed with ADP-Glo™ Kinase Assay kit from Promega (V9101). Test compounds were prepared by 10-point serial dilution in dimethyl sulfoxide (DMSO) and 100 nL of each dilution was spotted onto a 384-well Optiplate (Perkin Elmer and Cat #6007299) by Labcyte Echo. 5 μL kinase reaction buffer (0.02% Brij-35, 2 mM DTT, 50 mM HEPES pH 7.5, MgCl2 10 mM, BSA 0.01% and O-glycerophosphate 12.5 mM) containing HPK1 (3.2 nM) enzyme was transferred to each well and incubated for 15 minutes at room temperature at 60% humidity. The enzymatic reaction was started by adding 5 μl of Start-Mix (10 μM ATP and 3.235 μM MBP). After 120 minutes, the reaction was stopped by adding 5 μL of ADP-Glo reagent (Promega, V9101) and incubating for 40 min. in the dark at 23° C. To determine the level of ADP, 10 μl ADP-Glo Detection solution was added and incubated for 1 hour at 23° C. in the dark. The plate was transferred to a Perkin Elmer EnVision (2104 Multilabel Reader) for luminescence detection and percent inhibition activity and IC50 value were determined using Genedata Screener.

[2] = target: HPK1 (SLP76 phosphorylation at Ser376 in Jurkat and EL-4 cells) (Homo sapiens, UniProt Q92918); assay type: cell-based; conditions: αCD3/αCD28 Dynabeads stimulated cells, pSLP76 (Ser376) detection; read-out: HPK1 pSLP76 IC50
Chain of HPK1 (SLP76 phosphorylation at Ser376 in Jurkat and EL-4 cells) (Q92918 whole entry, looked up): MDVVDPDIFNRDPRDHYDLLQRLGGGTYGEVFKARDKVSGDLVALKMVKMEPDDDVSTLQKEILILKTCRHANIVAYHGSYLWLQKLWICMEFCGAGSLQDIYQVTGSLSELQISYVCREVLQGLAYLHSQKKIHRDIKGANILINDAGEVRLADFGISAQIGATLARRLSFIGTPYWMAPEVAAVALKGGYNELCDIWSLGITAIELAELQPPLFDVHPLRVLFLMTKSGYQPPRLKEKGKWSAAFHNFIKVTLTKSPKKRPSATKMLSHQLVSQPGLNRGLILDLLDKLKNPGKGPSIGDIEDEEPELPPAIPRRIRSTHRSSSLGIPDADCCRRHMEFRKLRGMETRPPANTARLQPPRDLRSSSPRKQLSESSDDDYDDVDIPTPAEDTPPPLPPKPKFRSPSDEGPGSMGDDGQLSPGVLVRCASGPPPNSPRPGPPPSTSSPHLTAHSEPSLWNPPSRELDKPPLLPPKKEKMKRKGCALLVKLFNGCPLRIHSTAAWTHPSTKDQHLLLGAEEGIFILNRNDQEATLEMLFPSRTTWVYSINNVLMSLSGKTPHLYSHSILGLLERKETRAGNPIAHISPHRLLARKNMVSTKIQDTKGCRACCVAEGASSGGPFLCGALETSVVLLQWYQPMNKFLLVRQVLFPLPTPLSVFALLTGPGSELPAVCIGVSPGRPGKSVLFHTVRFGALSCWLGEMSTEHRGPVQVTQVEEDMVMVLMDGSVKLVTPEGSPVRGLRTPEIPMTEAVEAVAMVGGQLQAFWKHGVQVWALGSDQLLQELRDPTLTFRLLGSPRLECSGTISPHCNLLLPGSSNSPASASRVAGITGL
Method: Cellular Assay—Phospho-SLP-76 (Ser376).
Inhibition of HPK1 enzymatic activity in cells was determined by detection of SLP76 phosphorylation at Ser376 residue in lysate from Jurkat (human) and EL-4 (mouse) cells. Jurkat and EL-4 cells express both HPK1 and SLP76 naturally. All cells were cultured in RPMI 1640 media containing 10% heat inactivated fetal bovine serum (FBS) and 1×Penicillin-Streptomycin. In either Jurkat or El-4 assay, cells were pre-incubated with test compounds prior to T cell stimulation by respective αCD3/αCD28 Dynabeads™. For detection, plates were read on the Envision and percent inhibition and IC50 were determined by Smart fit in Genedata Analyzer.
For Jurkat cells: 35 μL cell suspension were dispensed at a density of 30,000 cells/well in 384-well plates containing HBSS (Gibco, 14025076)+0.1% BSA). 10-point logarithmic serial dilution of test compounds in DMSO were prepared by a Hamilton automated liquid handling robot and 35 nL was transferred into each well by an Echo liquid handler. After 60 min. pre-incubation, the cells were stimulated by adding 5 μL human T activator αCD3/αCD28 Dynabeads™ (Gibco, 11132D) at 1.2×107 beads/mL for 15 minutes at 37° C. Detection of Ser376 phosphorylation status was accomplished by first adding 10 μL of 5×AlphaLISA lysis buffer (Perkin Elmer, ALSU-PSLP-A500) to each well of the cell plate using a Multidrop Combi (5840300), followed by 20 minutes shaking. 10 μL cell lysate from each treatment were then transferred to a white 384-well plate (Corning 3572) and incubated with AlphaLISA acceptor beads for one hour (AlphaLISA SureFire Ultra p-SLP76(Ser376), Perkin Elmer, ALSU-PSLP-A500), and donor beads for additional 2 hours at room temperature in the dark.
For EL-4.IL2 assay, 50 μL cell suspension at 2×10^6 cells/mL in HBSS were first dispensed into 384-well plates and then 50 nL serial dilutions of test compounds were spotted to each well by an Echo liquid handler. After 60 min. incubation at 37° C., cells were stimulated by adding 5 μL mouse T cell activator αCD3/αCD28 Dynabeads™ (ThermFisher Scientific, 11452D) for 30 minutes at 37° C. After a brief spin and subsequent supernatant discarded, 12.5 μL of Cisbio lysis buffer were added to each well and plates were shaken for 30 min at 450 RPM. For detection, 4 μL prepared HTRF antibody mixture (Cisbio, 63ADK000U) in detection buffer were mixed with 16 μl of cell lysate and plates were incubated at room temperature for 19 hours prior to EnVision reading.

Chain of full-length human HPK1 (MAP4K1) (Q92918 whole entry): as the sequence (Q92918 whole entry, looked up) above

IC50 [1]	IC50 [2]	SMILES
< 100 nM	< 500 nM	Cc1c(N2CCc3cnc(Nc4ccc([C@H](C)S(C)(=O)=O)cc4)nc3C2)cnc2c1NCCO2 (single isomer, unassigned) [Example 157]
< 100 nM	< 500 nM	Cc1c(N2CCc3cnc(Nc4ccc([C@@H](C)S(C)(=O)=O)cc4)nc3C2)cnc2c1NCCO2 (single isomer, unassigned) [Example 158]
< 100 nM	< 500 nM	Cc1c(N2CCc3cnc(Nc4ccc([C@H]5CCCS5(=O)=O)cc4)cc3C2)cnc2c1NCCO2 (single isomer, unassigned) [Example 169]
< 100 nM	< 500 nM	Cc1c(N2CCc3cnc(Nc4ccc([C@@H]5CCCS5(=O)=O)cc4)cc3C2)cnc2c1NCCO2 (single isomer, unassigned) [Example 170]
< 100 nM	< 500 nM	Cc1c(N2CCc3cnc(Nc4ccc(NCCN(C)C)c(F)c4)nc3C2)cnc2c1NCCO2 [Example 1, N1-[2-(dimethylamino)ethyl]-2-fluoro-N4-(7-{8-methyl-1H,2H,3H-pyrido[2,3-b][1,4]oxazin-7-yl}-5H,6H,7H,8H-pyrido[3,4-d]pyrimidin-2-yl)benzene-1,4-diamine]
< 100 nM	< 500 nM	Cc1cc(Nc2cc3c(cn2)CCN(c2cnc4c(c2Cl)NCCO4)C3)ccc1NC(=O)CN1CCC1 [Example 2, 2-(azetidin-1-yl)-N-{4-[(6-{8-chloro-1H,2H,3H-pyrido[2,3-b][1,4]oxazin-7-yl}-5,6,7,8-tetrahydro-2,6-naphthyridin-3-yl)amino]-2-methylphenyl}acetamide]
< 100 nM	< 500 nM	Cc1cc(Nc2ncc3c(n2)CN(c2cnc4c(c2C)NCCO4)CC3)ccc1NC(=O)CN1CCC1 [Example 3, 2-(azetidin-1-yl)-N-{2-methyl-4-[(7-{8-methyl-1H,2H,3H-pyrido[2,3-b][1,4]oxazin-7-yl}-5H,6H,7H,8H-pyrido[3,4-d]pyrimidin-2-yl)amino]phenyl}acetamide]
< 100 nM	< 500 nM	Cc1c(N2CCc3cnc(Nc4ccc(NCCN5CCOCC5)c(F)c4)cc3C2)cnc2c1NCCO2 [Example 4, 2-fluoro-N4-(6-{8-methyl-1H,2H,3H-pyrido[2,3-b][1,4]oxazin-7-yl}-5,6,7,8-tetrahydro-2,6-naphthyridin-3-yl)-N1-[2-(morpholin-4-yl)ethyl]benzene-1,4-diamine]
< 100 nM	> 1000 nM	Cc1c(N2CCc3cnc(Nc4cnc(CS(C)(=O)=O)c(Cl)c4)nc3C2)cnc2c1NCCO2 [Example 5, 5-chloro-6-(methanesulfonylmethyl)-N-(7-{8-methyl-1H,2H,3H-pyrido[2,3-b][1,4]oxazin-7-yl}-5H,6H,7H,8H-pyrido[3,4-d]pyrimidin-2-yl)pyridin-3-amine]
< 100 nM	< 500 nM	Cc1c(N2CCc3cnc(Nc4ccc(NCCN5CCOCC5)c(F)c4)nc3C2)cnc2c1NCCO2 [Example 6, 2-fluoro-N4-(7-{8-methyl-1H,2H,3H-pyrido[2,3-b][1,4]oxazin-7-yl}-5H,6H,7H,8H-pyrido[3,4-d]pyrimidin-2-yl)-N1-[2-(morpholin-4-yl)ethyl]benzene-1,4-diamine]
< 100 nM	< 500 nM	Cc1c(N2CCc3cnc(Nc4cc5n(n4)CC(=O)N(C(C)C)CC5)cc3C2)cnc2c1NCCO2 [Example 7, 2-[(6-{8-methyl-1H,2H,3H-pyrido[2,3-b][1,4]oxazin-7-yl}-5,6,7,8-tetrahydro-2,6-naphthyridin-3-yl)amino]-6-(propan-2-yl)-4H,5H,6H,7H,8H-pyrazolo[1,5-d][1,4]diazepin-7-one]
< 100 nM	< 500 nM	Cc1cc(Nc2cc3c(cn2)CCN(c2cnc4c(c2C)NCCO4)C3)ccc1NC(=O)CN1CCC1 [Example 9, 2-(azetidin-1-yl)-N-{2-methyl-4-[(6-{8-methyl-1H,2H,3H-pyrido[2,3-b][1,4]oxazin-7-yl}-5,6,7,8-tetrahydro-2,6-naphthyridin-3-yl)amino]phenyl}acetamide]
< 100 nM	< 500 nM	Cc1cc(Nc2ncc3c(n2)CN(c2cnc4c(c2C)NCCO4)CC3)ccc1NC(=O)CN1CCCC1 [Example 10, N-{2-methyl-4-[(7-{8-methyl-1H,2H,3H-pyrido[2,3-b][1,4]oxazin-7-yl}-5H,6H,7H,8H-pyrido[3,4-d]pyrimidin-2-yl)amino]phenyl}-2-(pyrrolidin-1-yl)acetamide]
< 100 nM	< 500 nM	Cc1c(N2CCc3cnc(Nc4ccc(NC(=O)CN5CCOCC5)cc4)nc3C2)cnc2c1NCCO2 [Example 12, N-{4-[(7-{8-methyl-1H,2H,3H-pyrido[2,3-b][1,4]oxazin-7-yl}-5H,6H,7H,8H-pyrido[3,4-d]pyrimidin-2-yl)amino]phenyl}-2-(morpholin-4-yl)acetamide]
< 100 nM	< 500 nM	Cc1c(N2CCc3cnc(Nc4ccc5c(c4)CNC5(C)C)nc3C2)cnc2c1NCCO2 [Example 13, 1,1-dimethyl-N-(7-{8-methyl-1H,2H,3H-pyrido[2,3-b][1,4]oxazin-7-yl}-5H,6H,7H,8H-pyrido[3,4-d]pyrimidin-2-yl)-2,3-dihydro-1H-isoindol-5-amine]
< 100 nM	< 500 nM	Cc1cc(Nc2cc3c(cn2)CCN(c2cnc4c(c2C)NCCO4)C3)ccc1NCCN(C)C [Example 14, N1-[2-(dimethylamino)ethyl]-2-methyl-N4-(6-{8-methyl-1H,2H,3H-pyrido[2,3-b][1,4]oxazin-7-yl}-5,6,7,8-tetrahydro-2,6-naphthyridin-3-yl)benzene-1,4-diamine]
< 100 nM	500 to 1000 nM	Cc1cc(Nc2cc3c(cn2)CCN(c2cnc4c(c2C)NCCO4)C3)ccc1NCCN1CCOCC1 [Example 15, 2-methyl-N4-(6-{8-methyl-1H,2H,3H-pyrido[2,3-b][1,4]oxazin-7-yl}-5,6,7,8-tetrahydro-2,6-naphthyridin-3-yl)-N1-[2-(morpholin-4-yl)ethyl]benzene-1,4-diamine]
	> 1000 nM	COc1cccc(F)c1N1CCc2cnc(Nc3cnc4c(c3)CN(C)CC4)nc2C1 [Example 120, 7-(2-fluoro-6-methoxyphenyl)-N-(6-methyl-5,6,7,8-tetrahydro-1,6-naphthyridin-3-yl)-5,6,7,8-tetrahydropyrido[3,4-d]pyrimidin-2-amine]
< 100 nM		COCCS(=O)(=O)Cc1ccc(Nc2cc3c(cn2)CCN(c2cnc4c(c2C)NCCO4)C3)cc1 [Example 172, N-{4-[(2-methoxyethanesulfonyl)methyl]phenyl}-6-{8-methyl-1H,2H,3H-pyrido[2,3-b][1,4]oxazin-7-yl}-5,6,7,8-tetrahydro-2,6-naphthyridin-3-amine]
< 100 nM		Cc1cc(Nc2ncc3c(n2)CN(c2cnc4c(c2Cl)NCCO4)CC3)ccc1CS(C)(=O)=O [Example 177, 7-{8-chloro-1H,2H,3H-pyrido[2,3-b][1,4]oxazin-7-yl}-N-[4-(methanesulfonylmethyl)-3-methylphenyl]-5H,6H,7H,8H-pyrido[3,4-d]pyrimidin-2-amine]
